Laboratory results from patent publication US10925971B2, “Methods of treating PRLR positive breast cancer” (Regeneron Pharmaceuticals, Inc., priority 2016, dated 2021).
Read-outs that look alike come from different tables or passages of the source. Square brackets hold non-standard residues; d marks the D form. Peptide text beside a SMILES is read from it. * marks the point of attachment. Dolaproine = CO[C@@H]([C@@H]1CCCN1)[C@@H](C)C(=O)O; Dil = CC[C@H](C)[C@H](NC)[C@@H](CC(=O)O)OC; X1 = C[C@@H](N*)[C@@H](O)c1ccccc1; NMeV = CN[C@H](C(=O)O)C(C)C

Columns and labels:
T47D cells = experiment: In vitro cell viability (cell kill) assay, CCK8; type: cell-based, human; conditions: T47D; for IC50: read-out: IC50
Procedure: (§1) Next, the ability of anti-PRLR-DM1 antibody-drug conjugates (i.e., anti-PRLR antibodies conjugated to DM1 via a non-cleavable linker [SMCC]) to reduce cell viability was determined using in vitro cell based assays. Cells were seeded in PDL-coated 96 well plates at 1500 to 10000 cells per well in complete growth media and allowed to grow overnight. For cell viability curves, ADCs or free DM1 (as the methyl disulfide derivative DM1-SMe) were added to the cells at final concentrations ranging from 500 nM to 5 pM and incubated for 3 days. The 293, PC3 and T47D cells were incubated with CCK8 (Dojindo, Rockville, Md.) for the final 1-3 hours and the absorbance at 450 nm (OD450) was determined on a Flexstation3 (Molecular Devices, Sunnyvale, Calif.). MCF7 cells were treated with Hoechst 33342 nuclear stain while being fixed with 4% formaldehyde. Images were acquired on the ImageXpress micro XL (Molecular Devices, Sunnyvale, Calif.) and nuclear counts were determined via Columbus image analysis software (Perkin Elmer, Shelton, Conn.). Background OD450 values (PC3, 293, and T47D) or nuclear counts (MCF7) from digitonin (40 nM) treated cells was subtracted from all wells and viability was expressed as a percentage of the untreated controls. IC50 values were determined from a four-parameter logistic equation over a 10-point response curve (GraphPad Prism).

HEK293 (293) cells = experiment: In vitro cell viability (cell kill) assay, CCK8; type: cell-based, human
From the text: (§2) PRLR-overexpressing cells, including HEK293, PC3, MCF7 and NCI-N87, were generated to assess the ability of anti-PRLR conjugated antibodies to reduce cell viability. For comparative purposes, PC3 and T47D cells with overexpressed ErbB2 were also generated, as well as an MCF7 cell line over-expressing both hPRLR and hErbB2. Briefly, Lipofectamine® 2000-mediated transfection methodology was utilized to generate HEK293 cells expressing human PRLR (HEK293/hPRLR) or human ErbB2 (HEK293/hErbB2). Lipofectamine LTX with Plus Reagent was used to generate PC3 cells expressing human PRLR (PC3/hPRLR) or human ErbB2 (PC3/hErbB2). Lentiviral-mediated transduction was utilized to generate MCF7 cells expressing human PRLR (MCF7/hPRLR), NCI-N87 cells expressing human PRLR (NCI-N87/hPRLR), T47D cells over-expressing human ErbB2 (T47D/hErbB2), and MCF7 cells expressing both human PRLR and human ErbB2 (MCF7/hPRLR/hErbB2). All lines were selected for at least two weeks in complete growth media plus appropriate selection reagents. Stably expressing populations were enriched for PRLR expression via FACS using the anti PRLR antibody Control I.
as §1

MCF7 (MCF7/ATCC) cells = experiment: In vitro cell viability (cell kill) assay, nuclear counts; type: cell-based, human; conditions: MCF7/ATCC
From the text: as §2, §1

[1] = tested on: MCF7/hPRLR (MCF7/PRLR) cells; experiment: as above; type: cell-based, human
From the text: as §2, §1

PC3/hPRLR cells = experiment: In vitro cell viability (cell kill) assay, CCK8; type: cell-based, human; conditions: Table 18
From the text: as §2, §1

PC3 cells = experiment: In vitro cell viability (cell kill) assay, CCK8; type: cell-based, human
From the text: as §2, §1

PRLR expressing cells = experiment: In vitro cell viability (cell kill) assay, several cell backgrounds; type: cell-based, human; conditions: PC3/hPRLR and MCF7/hPRLR cell lines
From the text: as §2, §1

T47D#11 tumors = type: in vivo, CB17 SCID mice; conditions: for Final Tumor size mm^3 (mean ± SEM) / Average Tumor Growth Inhibition (%): T47D#11 tumors, SCID mice, Day 66; for T47D #11 tumor growth: repeat dosing 5 and 15 mg/kg
From the text: (§3) Briefly, 20×10^6 MCF7/PRLR cells (ATCC HTB-22 transfected with full length hPRLR as previously described) were implanted subcutaneously into the left mammary fat pad of female NCr nude mice. In other studies, 10×10^6 PC3/PRLR (ATCC CRL-1435 transfected with full length hPRLR as previously described) were implanted subcutaneously into the left flank of male SCID mice. Additionally, 10×10^6 parental T47D (ATCC HTB-133) or 7.5×10^10 T47D #11 cells (ATCC HTB-133 serially passaged in vivo as described below) were subcutaneously implanted into the left flank of female CB17 SCID mice. All mice were obtained from Taconic (Hudson, N.Y.). Each bolus of cells was supplemented with a 90-day estrogen release pellet (1.7 mg/pellet; Innovative Research America, Sarasota Fla.). […] Control reagents included PBS vehicle, free methyl-disulfide DM1 (DM1-SMe) and isotype Control 1-DM1.
(§4) In multi-dose studies, mice were dosed once a week for a total of three weeks with tumor volumes and body weights being monitored twice weekly throughout the study. Test ADCs were dosed at 5 and/or 15 mg/kg in the multi-dose studies. In single-dose studies, mice received a single dose of test ADC, and tumor volumes and body weights were monitored twice weekly throughout the study. Test ADCs were dosed at 1, 2.5, 5, and 15 mg/kg in the single-dose studies. Average tumor size as well as tumor growth inhibition relative to the vehicle treated group were calculated for each group. Tumors were measured with calipers twice a week until the average size of the vehicle group reached 1000 mm^3. Tumor size was calculated using the formula (length×width^2)/2. Tumor growth inhibition was calculated according to the following formula: (1−((Tfinal−Tinitial)/(Cfinal−Cinitial)))*100, where T (treated group) and C (control group) represent the mean tumor mass on the day the vehicle group reached 1000 mm^3. […] Results are summarized in Tables 21-25 (multi-dose) and Table 26 (single dose). (NT=not tested in the particular experiment shown).

MCF7/PRLR tumors = experiment: MCF7/PRLR breast cancer xenograft, tumor size and tumor growth inhibition; type: in vivo, NCr nude mice; conditions: MCF7/PRLR tumors TRIAL #2, NCr Nude mice, Day 63
From the text: as §3, §4

PC3/PRLR tumors = experiment: PC3/PRLR xenograft, tumor size and tumor growth inhibition; type: in vivo, SCID mice; conditions: PC3/PRLR tumors TRIAL #2, SCID mice, Day 55
From the text: as §3, §4

Molecule: COc1cc2cc(c1Cl)N(C)C(=O)C[C@H](OC(=O)[C@H](C)N(C)C(=O)CCC(C)(C)S)[C@]1(C)O[C@H]1[C@H](C)[C@@H]1C[C@@](O)(NC(=O)O1)[C@H](OC)/C=C/C=C(\C)C2 [Free DM4]
- % Kill (T47D cells; Table 19): 100%
- IC50 (T47D cells; Table 19): 0.5 nM
- % Kill (HEK293 (293) cells; 293, Table 19): 100%
- IC50 (HEK293 (293) cells; 293, Table 19): 0.6 nM
- % Kill (MCF7 (MCF7/ATCC) cells; Table 20): 90%
- IC50 (MCF7 (MCF7/ATCC) cells; Table 20): 1.3 nM
- % Kill ([1]; Table 20): 90%
- IC50 ([1]; Table 20): 2 nM

Molecule: CC[C@H](C)[C@@H]([C@@H](CC(=O)N1CCC[C@H]1[C@H](OC)[C@@H](C)C(=O)N[C@H](C)[C@@H](O)c1ccccc1)OC)N(C)C(=O)[C@@H](NC(=O)[C@@H](NC)C(C)C)C(C)C [Free MMAE] (H-[NMeV]V[Dil][Dolaproine]-X1)
- % Kill (T47D cells; Table 19): 100%
- IC50 (T47D cells; Table 19): 1 nM
- % Kill (PC3/hPRLR cells): 77%
- IC50 (PC3/hPRLR cells): 1 nM
- % Kill (PC3 cells; Table 18): 90%
- IC50 (PC3 cells; Table 18): 1.4 nM
- % Kill (HEK293 (293) cells; 293, Table 19): 100%
- IC50 (HEK293 (293) cells; 293, Table 19): 0.9 nM
- % Kill (MCF7 (MCF7/ATCC) cells; Table 18): 83%
- IC50 (MCF7 (MCF7/ATCC) cells; Table 18): 2.4 nM
- % Kill (MCF7 (MCF7/ATCC) cells; Table 20): 80%
- IC50 (MCF7 (MCF7/ATCC) cells; Table 20): 2.4 nM
- % Kill ([1]; Table 18): 95%
- IC50 ([1]; Table 18): 1.5 nM
- % Kill ([1]; Table 20): 95%
- IC50 ([1]; Table 20): 1.5 nM

Molecule: COc1cc2cc(c1Cl)N(C)C(=O)C[C@H](OC(=O)[C@H](C)N(C)C(=O)CCSSC)[C@]1(C)O[C@H]1[C@H](C)[C@@H]1C[C@@](O)(NC(=O)O1)[C@H](OC)/C=C/C=C(\C)C2 [Me-SS-May Free DM1]
- % Kill (T47D cells; Table 13, without PRL): 100%
- IC50 (T47D cells; Table 13, without PRL): 0.3 nM
- % Kill (HEK293 (293) cells; HEK293, Table 13, without PRL): 94%
- IC50 (HEK293 (293) cells; HEK293, Table 13, without PRL): 0.6 nM

B1: H1H6765P-DM1: anti-PRLR antibody H1H6765P conjugated to DM1 through an SMCC linker (conjugate)
VH: EVQLVESGGGVVRPGGSLRLSCVGSGFSFDDHGMNWVRQGPGKGLEWVSGFNWNGGSTNYAESVKGRFTISRDNARNSLFLQMNSLRAEDTALYYCVRGRSGWFNDAFDVWGPGTMVTVSS
VL: EIVLTQSPGTLSLSPGERATLSCRASQTINSNYLAWYRQKPGQTPRLLIYGTSSRATGIPDRFSGSGSGTDFSLTISRLEPEDFAVFYCQQYAGLPTFGPGTKVDIK
- cell killing, non-cleavable DM1 ADCs versus cleavable MMAE ADCs (PRLR expressing cells): nearly equivalent cell killing
- Final Tumor size mm^3 (mean ± SEM) (T47D#11 tumors; multi-dose 5 mg/kg): 183 ± 28 mm^3
- Average Tumor Growth Inhibition (%) (T47D#11 tumors; multi-dose 15 mg/kg): 111%
- Final Tumor size mm^3 (mean ± SEM) (T47D#11 tumors; multi-dose 15 mg/kg): 69 ± 12 mm^3
- T47D #11 tumor growth (T47D#11 tumors): potently inhibited tumor growth
- Average Tumor Growth Inhibition (%) (MCF7/PRLR tumors; multi-dose 5 mg/kg): 122%
- Average Tumor Growth Inhibition (%) (MCF7/PRLR tumors; multi-dose 15 mg/kg): 136%
- Final Tumor size mm^3 (mean ± SEM) (MCF7/PRLR tumors; multi-dose 15 mg/kg): 0 ± 0 mm^3
- IC50 (PC3 cells; Table 11, 3 days): 200 nM
- Final Tumor size mm^3 (mean ± SEM) (PC3/PRLR tumors; multi-dose 5 mg/kg): 489 ± 70 mm^3
- Average Tumor Growth Inhibition (%) (PC3/PRLR tumors; multi-dose 15 mg/kg): 98%
- Final Tumor size mm^3 (mean ± SEM) (PC3/PRLR tumors; multi-dose 15 mg/kg): 181 ± 42 mm^3

B2: H1H6765-mc-VC-PAB-MMAE (conjugate)
VH: EVQLVESGGGVVRPGGSLRLSCVGSGFSFDDHGMNWVRQGPGKGLEWVSGFNWNGGSTNYAESVKGRFTISRDNARNSLFLQMNSLRAEDTALYYCVRGRSGWFNDAFDVWGPGTMVTVSS
VL: EIVLTQSPGTLSLSPGERATLSCRASQTINSNYLAWYRQKPGQTPRLLIYGTSSRATGIPDRFSGSGSGTDFSLTISRLEPEDFAVFYCQQYAGLPTFGPGTKVDIK
- cell killing, non-cleavable DM1 ADCs versus cleavable MMAE ADCs (PRLR expressing cells): nearly equivalent cell killing

B3: H1H6782P-DM1: anti-PRLR antibody H1H6782P conjugated to DM1 through an SMCC linker (conjugate)
VH: EVQLVESGGGLVQPGRSLRLSCAASGFTFDDYAMHWVRQAPGKGLEWVSGIIWNSGHIGYGDSVKGRFTISRDNAKKSLYLQMNSLRAEDTALYYCARDSGRYQSYFDYWGQGTLVTVSS
VL: DIQMTQSPSTLSASVGDRVTITCRASHIISSWLAWYQQKPGKAPKVLIFKASSLESGVPSRFSGSGSGTEFTLTISSLQPDDFATYYCQQYNTYSRTFGQGTKVEIK
- Final Tumor size mm^3 (mean ± SEM) (T47D#11 tumors; multi-dose 5 mg/kg): 293 ± 20 mm^3
- Average Tumor Growth Inhibition (%) (T47D#11 tumors; multi-dose 15 mg/kg): 106%
- Final Tumor size mm^3 (mean ± SEM) (T47D#11 tumors; multi-dose 15 mg/kg): 124 ± 36 mm^3
- T47D #11 tumor growth (T47D#11 tumors): potently inhibited tumor growth
- Average Tumor Growth Inhibition (%) (MCF7/PRLR tumors; multi-dose 5 mg/kg): 123%
- Average Tumor Growth Inhibition (%) (MCF7/PRLR tumors; multi-dose 15 mg/kg): 137%
- % Kill (PC3 cells; Table 11, 3 days): 67%
- % Kill (HEK293 (293) cells; 293, Table 11, 3 days): 86%
- Average Tumor Growth Inhibition (%) (PC3/PRLR tumors; multi-dose 5 mg/kg): 69%
- Final Tumor size mm^3 (mean ± SEM) (PC3/PRLR tumors; multi-dose 5 mg/kg): 490 ± 63 mm^3
- Final Tumor size mm^3 (mean ± SEM) (PC3/PRLR tumors; multi-dose 15 mg/kg): 321 ± 33 mm^3

B4: H1H6958N2-mc-VC-PAB-MMAE (conjugate)
VH: QVQLVESGGGVVQPGRSLRLSCGASGFTFRNYGMQWVRQGPGKGLEWVTLISFDGNDKYYADSVKGRFTISRDNSKNTLFLQMNSLRTEDTAVYYCARGGDFDYWGQGTLVTVSS
VL: DIQMTQSPSSLSASVGDRVTITCRASQDIRKDLGWYQQKPGKAPKRLIYAASSLHSGVPSRFSGSGSGTEFTLTISSLQPEDFATYYCLQHNSYPMYTFGQGTKLEIK
- cell killing, non-cleavable DM1 ADCs versus cleavable MMAE ADCs (PRLR expressing cells): nearly equivalent cell killing
- % Kill (PC3 cells; Table 18): 39%

B5: H1H6953-mc-vc-PAB-MMAE (conjugate)
VH: EVQLLESGGGLVQPGGTLRLSCAASGFTFSAYAMSWVRQAPGKGLEWVSSINVRAGDTYYADSVKGRFTISRDNSKNTLFLLMNSLRAEDTAAYYCAKARYSSNWGFDFWGQGTLVTVSS
VL: DIVMTQSPDSLTVSLGARTTINCQSSQTILHSSNNHNYLAWYQQKPGLPPKLLIYWSSTRESGVPDRFSGSGSGTDFTLTISSLQAEDVAIYYCQQYSNTPYTFGQGTKLEIN
- cell killing, non-cleavable DM1 ADCs versus cleavable MMAE ADCs (PRLR expressing cells): nearly equivalent cell killing
